This note sets out measurements from US6417375B1, “Furylphosphines and organometallic complexes containing them” (Rhodia Fiber & Resin Intermediates, priority 1998, dated 2002).

This series is described as follows: Solubility of the furylphosphine in water.

In general, solubility refers to the dissolved amount per volume that the medium holds. Consider `O=C([O-])c1ccc(P(c2ccccc2)c2ccccc2)o1.[Na+]` [Example 1, sodium 2-(diphenylphosphino)furan-5-carboxylate], for which the solubility (23 °C) came out at 250 mg/mL.

Consider `O=P(O)(O)c1ccc(P(c2ccccc2)c2ccc(P(=O)(O)O)o2)o1` [Example 3, tetrasodium 2,2′-phenylphosphine-diylbis(furan-5-phosphonate)], for which, for the setting “23 °C”, the solubility turned out to be 1140 mg/mL.

Under “21 °C”, `O=S([O-])c1ccc(P(c2ccccc2)c2ccccc2)o1.[Na+]` [Example 4, sodium 2-(diphenylphosphino)furan-5-sulphinate] yielded a solubility of 205 mg/mL. `O=P([O-])([O-])c1ccc(P(c2ccccc2)c2ccccc2)o1.[Na+].[Na+]` [Example 2, disodium 2-(diphenylphosphino)furan-5-phosphonate] displayed a solubility (20 °C) of 680 mg/mL.
